Measurements published in patent US9221815B2, “Solid state form of vemurafenib choline salt” (ratiopharm GmbH, priority 2012, dated 2015).
Read-outs that look alike come from different tables or passages of the source.

What was measured:
[1] = in accordance with WO 2010/114928 and WO 2010/129570; cited from earlier work
[2] = amorphous form; cited from earlier work

SMILES: CCCS(=O)(=O)Nc1ccc(F)c(C(=O)c2c[nH]c3ncc(-c4ccc(Cl)cc4)cc23)c1F [Vemurafenib, propane-1-sulfonic acid {3-[5-(4-chlorophenyl)-1H-pyrrolo[2,3-b]pyridine-3-carbonyl]-2,4-difluoro-phenyl}-amide]
- Solubility (in words) [1]: extremely low solubility

SMILES: CCCS(=O)(=O)Nc1ccc(F)c(C(=O)c2c[nH]c3ncc(-c4ccc(Cl)cc4)cc23)c1F [Amorphous Vemurafenib]
- Stability (in words) [2]: not stable

SMILES: CCCS(=O)(=O)Nc1ccc(F)c(C(=O)c2c[nH]c3ncc(-c4ccc(Cl)cc4)cc23)c1F.C[N+](C)(C)CCO [Vemurafenib Choline crystalline C1]
- Period stable upon storage (45° C. and 75% relative humidity (RH)): at least 2 weeks
- Period stable upon storage (ambient conditions (room temperature and atmospheric humidity)): at least 7 months
